Laboratory results reported in patent US11110147B2, “Collagen hydrolysates as a beneficial prebiotic and their effect on joint inflammation and osteoarthritis” (ROUSSELOT B.V., priority 2017, dated 2021).

Test system: gut microbiome
Assay: Microbial 16S rDNA analysis of fecal samples
Format: in vivo, mice
Settings: 38 mg/day hCol1 or glucosamine, FIG. 10C
Description: FIGS. 10A-10C: hCol1 supplementation induces significant change in the gut microbiome. Microbial rDNA analysis was performed on fecal samples collected from lean and obese mice supplemented with control Nutella, 38 mg/day hCol1, or glucosamine. […] FIG. 10A: Principal coordinate analysis of microbial abundance from obese control Nutella (1), obese glucosamine (2), obese hCol1 (3), lean hCol1 (4), lean glucosamine (5) and lean control Nutella (6) mice. […] FIGS. 15A-15G: hCol1 and hCol2 supplementation induces significant change in the gut microbiome and provides protective effects in post-traumatic osteoarthritis. (FIG. 15A) Microbial rDNA analysis was performed on fecal samples collected from chow fed mice supplemented with control Nutella, 38 mg/day hCol1, or 15 mg/day hCol2 for 4 weeks. Bars show relative microbial abundance in the indicated groups. Each bar represents an average of 3 mice. In the chow diet, hCol 1 and 2 tended to have similar effects: Increases in the abundance of Bacteroidales, Lactobacillales, Turicibacterales, and Anaeroplasmatales. […] Panels depicting the tibia uncalcified cartilage area (FIG. 15B), the number of chondrocytes in the tibia uncalcified cartilage (FIG. 15C), the number (FIG. 15D) and percentage (FIG. 15E) of Safranin-O positive (SafO^+) chondrocytes in the tibia uncalcified cartilage, the femur uncalcified cartilage area (FIG. 15F), and the number of chondrocytes in the femur uncalcified cartilage (FIG. 15G) in Sham and DMM chow fed mice supplemented with vehicle (Nutella) (Control DMM), hCol1 (P1 DMM) or hCol2 (P2 DMM) at 12 weeks after injury. FIGS. 16A-16E: (FIG. 16A) Microbial rDNA analysis was performed on fecal samples collected from lean fed mice supplemented with control Nutella, 38 mg/day hCol1, or 15 mg/day hCol2. Bars show relative microbial abundance in the indicated groups. […] Panels depicting the tibia cartilage area (FIG. 16B), the tibia uncalcified cartilage area (FIG. 16C), the number of chondrocytes in the tibia uncalcified cartilage (FIG. 16D), and the percentage (FIG. 16E) of Safranin-O positive (SafO^+) chondrocytes in the tibia uncalcified cartilage in Sham and DMM lean fed mice supplemented with vehicle (Nutella) (Control DMM), hCol1 (P1 DMM) or hCol2 (P2 DMM) at 12 weeks after injury. FIG. 17A-17H: (FIG. 17A) Microbial rDNA analysis was performed on fecal samples collected from high fat (HF) (60% of caloric energy from saturated fat) fed mice supplemented with control Nutella, 38 mg/day hCol1, or 15 mg/day hCol2 for 4 weeks. Bars show relative microbial abundance in the indicated groups. […] Panels depicting the tibia cartilage area (FIG. 17B), the tibia uncalcified cartilage area (FIG. 17C), the number of chondrocytes in the tibia uncalcified cartilage (FIG. 17D), the number of Safranin-O positive (SafO^+) chondrocytes in the tibia uncalcified cartilage (FIG. 17E), the femur uncalcified cartilage area (FIG. 17F), the number of chondrocytes in the femur uncalcified cartilage (FIG. 17G), and the number of Safranin-O positive (SafO^+) chondrocytes in the femur uncalcified cartilage (FIG. 17H) in Sham and DMM high fat diet-fed mice supplemented with vehicle (Nutella) (Control DMM), hCol1 (P1 DMM) or hCol2 (P2 DMM) at 3 weeks after injury. FIG. 19: hCol2 alters the gut microbiome. Mice fed chow or high fat diet for 3 months were supplemented daily with hCol2 (HFD+hCol2) or vehicle (Nutella) (HFD) for 4 weeks. Fecal samples were collected and microbial rDNA analysis was performed. A subset of bacterial species was altered in high fat diet-fed mice compared to chow fed mice, and hCol2 supplementation changed the gut microbiome of these high fat diet-fed mice. Numerous proinflammatory species, particularly Peptococcaceae rc4-4 sp, were reduced in hCol2-supplemented mice (top heat map). Conversely, several anti-inflammatory species were enhanced in hCol2-supplemented animals, including Bifidobacterium pseudolongum (bottom heat map). […]

N[C@H]1C(O)O[C@H](CO)[C@@H](O)[C@@H]1O (some centres unmarked) [glucosamine]
relative microbial abundance: Actinobacteria (lean mice): 12.07%
relative microbial abundance: Bacteroidetes (lean mice): 13.4103%
relative microbial abundance: Firmicutes (lean mice): 72.6939%
relative microbial abundance: Tenericutes (lean mice): 1.1749%
relative microbial abundance: Verrucomicrobia (lean mice): 0.0119%
relative microbial abundance: Actinobacteria (lean mice, listed as Glucosamine): 12.7091%
relative microbial abundance: Actinobacteria (obese mice): 0.4928%
relative microbial abundance: Bacteroidetes (obese mice): 11.2335%
relative microbial abundance: Firmicutes (obese mice): 88.0274%
relative microbial abundance: Proteobacteria (obese mice): 0.0005%
relative microbial abundance: Verrucomicrobia (obese mice): 0.2458%
